The values below come from patent publication EP0120428A1, “Benzopyran isomers” (BEECHAM GROUP PLC, priority 1983, dated 1984).

Each structure is given as a SMILES string.

For assay [1] the following is noted: disclosed in European patent publication 9912; cited from earlier work.
In assay [2] the test system is Spontaneously hypertensive rats. The assay is described as follows: Systolic blood pressure and heart rate by modified tail cuff method in spontaneously hypertensive rats. The assay is classed as in vivo. The settings on record: 0.3 mg/kg p.o.; for %Change in Systolic Blood Blood: initial blood pressure 180±7mmHg; for %Change in Heart Rate: initial heart rate 507±5beats/min. As for the experimental part: Systolic blood pressures were recorded by a modification of the tail cuff method described by I.M. Claxton, M.G. Palfreyman, R.H. Poyser, R.L. Whiting, European Journal of Pharmacology, 37, 179 (1976).
W+W BP recorder, model 8005, was used to display pulses. Prior to all measurments rats were placed in a heated environment (33.5±0.5°C) before transfer to a restraining cage. Each determination of blood pressure was the mean of at least 6 readings. Spontaneously hypertensive rats (ages 12-18 weeks) with systolic blood pressures >170 mmHg were considered hypertensive.

The mark [3] stands for this setting: 5 rats, 2 hours post dose (2 rats had no measurable pulse).
The mark [4] stands for this setting: 5 rats, 4 hours post dose (3 rats had no measurable pulse).
Where [5] appears, read: 5 rats, 6 hours post dose (2 rats had no measurable pulse).
The mark [6] stands for this setting: 24 hours post dose (4 rats only).

For `CC1(C)Oc2ccc(C#N)cc2[C@@H](N2CCCC2)[C@@H]1O` (relative stereo) [6-cyano-3,4-dihydro-2,2-dimethyl-trans 4-pyrrolidino-2H-benzo[b]pyran-3-ol], in assay [1], the “blood pressure lowering activity” value is “has blood pressure lowering activity”.
Consider `CC1(C)Oc2ccc(C#N)cc2[C@@H](N2CCCC2=O)[C@@H]1O` (relative stereo) [Compound (1) of Example (3S,4R)-isomer, 6-cyano-3,4-dihydro-2,2-dimethyl-trans-4-(2-oxo-1-pyrrolidinyl)-2H-benzo[b]pyran-3-ol], for which the “%Change in Systolic Blood Blood” value is listed as -59 ± 4% in assay [2] (5 rats, 1 hour post dose); -52 ± 7% in assay [2] (setting [3]); -32% in assay [2] (setting [4]); -28 ± 8% in assay [2] (setting [5]); -14 ± 7% in assay [2] (setting [6]). Also, the “%Change in Heart Rate” value is -2 ± 2% in assay [2] (5 rats, 1 hour post dose); -6 ± 3% in assay [2] (setting [3]); -15% in assay [2] (setting [4]); -5 ± 1% in assay [2] (setting [5]); -3 ± 2% in assay [2] (setting [6]).
Turning to `CC1(C)Oc2ccc(C#N)cc2[C@@H](N2CCCC2)[C@@H]1O` (single isomer, unassigned; isomer 6) [(+)-isomer, 6-cyano-3,4-dihydro-2,2-dimethyl-trans 4-pyrrolidino-2H-benzo[b]pyran-3-ol], the “blood pressure lowering activity” value in assay [1] is listed as “greater blood pressure lowering activity than the (-)- isomer”.
